{
  "source": "ChEMBL document CHEMBL4382198",
  "about": "“Discovery of Risdiplam, a Selective Survival of Motor Neuron-2 ( SMN2) Gene Splicing Modifier for the Treatment of Spinal Muscular Atrophy (SMA)” (J Med Chem, 2018)",
  "key": {"Homo sapiens": {"organism": "Homo sapiens", "test": "Modulation of human SMN2 mRNAsplicing expressed in HEK293H cells by qRT-PCR analysis", "type": "cell-based"}, "[1]": {"test": "Effect on human FOXM1a mRNA splicing expressed in human SMA-derived fibroblasts by RT-qPCR analysis", "type": "ADME"}, "[2]": {"test": "Effect on FOXM1b/c mRNA splicing in human induced pluripotent stem cells by RT-qPCR analysis", "type": "ADME", "conditions": "Homo sapiens"}, "[3]": {"test": "Effect on FOXM1b/c mRNA splicing in cynomolgus monkey induced pluripotent stem cells by RT-qPCR analysis", "type": "ADME, Macaca fascicularis", "conditions": "Macaca fascicularis"}, "hERG (KCNH2)": {"target": "hERG (KCNH2) (Homo sapiens, UniProt Q12809)", "sequence (Q12809 whole entry)": "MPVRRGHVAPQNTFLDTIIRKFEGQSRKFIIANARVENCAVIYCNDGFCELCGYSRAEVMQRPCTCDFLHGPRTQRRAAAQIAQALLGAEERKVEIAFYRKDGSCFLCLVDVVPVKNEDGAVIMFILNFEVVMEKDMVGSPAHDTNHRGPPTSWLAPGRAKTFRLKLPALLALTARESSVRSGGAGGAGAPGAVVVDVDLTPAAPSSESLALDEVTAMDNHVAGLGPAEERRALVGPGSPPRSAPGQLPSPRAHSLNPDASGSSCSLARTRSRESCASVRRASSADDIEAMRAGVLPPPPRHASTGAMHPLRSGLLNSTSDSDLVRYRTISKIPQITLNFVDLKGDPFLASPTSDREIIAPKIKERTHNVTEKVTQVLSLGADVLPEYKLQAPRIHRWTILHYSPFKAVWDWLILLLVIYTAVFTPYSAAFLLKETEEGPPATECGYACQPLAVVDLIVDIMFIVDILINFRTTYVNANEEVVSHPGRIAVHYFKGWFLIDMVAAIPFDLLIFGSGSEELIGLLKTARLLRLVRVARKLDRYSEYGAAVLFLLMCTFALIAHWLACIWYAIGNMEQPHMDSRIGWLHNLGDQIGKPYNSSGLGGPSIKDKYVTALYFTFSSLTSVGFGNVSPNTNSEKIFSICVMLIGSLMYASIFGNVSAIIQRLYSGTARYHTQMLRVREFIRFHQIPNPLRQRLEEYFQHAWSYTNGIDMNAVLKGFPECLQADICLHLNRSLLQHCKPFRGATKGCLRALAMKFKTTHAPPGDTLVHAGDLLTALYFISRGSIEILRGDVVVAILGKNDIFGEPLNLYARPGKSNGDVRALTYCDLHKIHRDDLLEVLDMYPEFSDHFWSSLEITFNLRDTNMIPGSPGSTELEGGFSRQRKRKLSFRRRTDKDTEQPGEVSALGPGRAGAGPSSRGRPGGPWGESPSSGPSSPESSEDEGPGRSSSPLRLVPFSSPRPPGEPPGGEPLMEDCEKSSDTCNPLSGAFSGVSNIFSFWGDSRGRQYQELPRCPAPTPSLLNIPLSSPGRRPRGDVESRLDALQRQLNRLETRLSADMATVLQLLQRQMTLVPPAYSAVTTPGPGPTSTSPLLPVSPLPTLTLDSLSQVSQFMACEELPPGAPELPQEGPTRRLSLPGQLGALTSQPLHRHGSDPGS", "test": "Inhibition of human ERG at 37 degC", "conditions": "human"}, "[4]": {"test": "Cardiotoxicity in cynomolgus monkey assessed as prolongation of QTc interval time", "type": "toxicity, Macaca fascicularis"}, "[5]": {"test": "Efflux ratio of permeability in human SMA-derived fibroblasts", "type": "ADME, cell-based, Fibroblast", "conditions": "not told"}, "[6]": {"test": "Fraction unbound in human plasma", "type": "ADME, cell-free"}, "[7]": {"test": "Fraction unbound in mouse plasma", "type": "ADME, cell-free"}, "[8]": {"test": "Clearance in rat at 1.9 mg/kg, iv administered as single dose", "type": "ADME, organism-based", "conditions": "in vivo"}, "[9]": {"test": "Volume of distribution at steady state in rat at 1.9 mg/kg, iv administered as single dose", "type": "ADME, organism-based", "conditions": "in vivo, read-out: Vdss"}, "[10]": {"test": "Oral bioavailability in rat at 5.5 mg/kg administered as single dose", "type": "ADME, organism-based", "conditions": "in vivo"}, "[11]": {"test": "Clearance in cynomolgus monkey at 0.1 mg/kg, iv administered as single dose", "type": "ADME, organism-based, Macaca fascicularis", "conditions": "in vivo"}, "[12]": {"test": "Half life in cynomolgus monkey at 0.5 mg/kg, po administered as single dose", "type": "ADME, organism-based, Macaca fascicularis", "conditions": "in vivo"}, "[13]": {"test": "Oral bioavailability in cynomolgus monkey at 0.5 mg/kg administered as single dose", "type": "ADME, organism-based, Macaca fascicularis", "conditions": "in vivo"}, "Mus musculus [14]": {"tested_on": "Mus musculus", "test": "In-vivo stabilization of SMN2 mRNA in SMA adult C/C allele mouse model assessed as increase in SMN protein levels in brain at 3 mg/kg, po dosed once daily for 10 days relative to control", "type": "functional"}, "Mus musculus [15]": {"tested_on": "Mus musculus", "test": "In-vivo stabilization of SMN2 mRNA in SMA adult C/C allele mouse model assessed as increase in SMN protein levels in quadriceps at 1 mg/kg, po dosed once daily for 10 days relative to control", "type": "functional"}, "Mus musculus [16]": {"tested_on": "Mus musculus", "test": "In-vivo stabilization of SMN2 mRNA in SMA adult C/C allele mouse model assessed as increase in SMN protein levels in quadriceps at 3 mg/kg, po dosed once daily for 10 days relative to control", "type": "functional"}, "Mus musculus [17]": {"tested_on": "Mus musculus", "test": "In-vivo stabilization of SMN2 mRNA in SMA neonatal delta7 mouse model assessed as increase in SMN protein levels in brain at 0.1 mg/kg, ip dosed once daily starting from postnatal day 3 to postnatal day 9 relative to control", "type": "functional"}, "Mus musculus [18]": {"tested_on": "Mus musculus", "test": "In-vivo stabilization of SMN2 mRNA in SMA neonatal delta7 mouse model assessed as increase in SMN protein levels in brain at 0.3 mg/kg, ip dosed once daily starting from postnatal day 3 to postnatal day 9 relative to control", "type": "functional"}, "Mus musculus [19]": {"tested_on": "Mus musculus", "test": "In-vivo stabilization of SMN2 mRNA in SMA neonatal delta7 mouse model assessed as increase in SMN protein levels in brain at 1 mg/kg, ip dosed once daily starting from postnatal day 3 to postnatal day 9 relative to control", "type": "functional"}, "Mus musculus [20]": {"tested_on": "Mus musculus", "test": "In-vivo stabilization of SMN2 mRNA in SMA neonatal delta7 mouse model assessed as increase in SMN protein levels in quadriceps at 0.3 mg/kg, ip dosed once daily starting from postnatal day 3 to postnatal day 9 relative to control", "type": "functional"}, "Mus musculus [21]": {"tested_on": "Mus musculus", "test": "In-vivo stabilization of SMN2 mRNA in SMA neonatal delta7 mouse model assessed as increase in SMN protein levels in quadriceps at 1 mg/kg, ip dosed once daily starting from postnatal day 3 to postnatal day 9 relative to control", "type": "functional"}, "Mus musculus [22]": {"tested_on": "Mus musculus", "test": "In-vivo stabilization SMN2 mRNA in SMA delta7 mouse assessed as increase in mean survival day at 0.1 to 3 mg/kg, ip dosed daily starting from postnatal day 3 to postnatal day 23 followed by po dosing 0.3 to 10 mg/kg per day via gavage", "type": "functional, organism-based"}, "Mus musculus [23]": {"tested_on": "Mus musculus", "test": "In-vivo stabilization SMN2 mRNA in SMA delta7 mouse assessed as increase in mean survival day at 0.1 mg/kg, ip dosed daily starting from postnatal day 3 to postnatal day 23 followed by po dosing 0.3 mg/kg per day via gavage (reference value: 10.5 days)", "type": "functional"}, "Mus musculus [24]": {"tested_on": "Mus musculus", "test": "In-vivo stabilization SMN2 mRNA in SMA delta7 ip dosed mouse assessed as increase in number of vGlut1 inputs in L3 to L5 spinal cord dosed daily starting from postnatal day 3 to postnatal day 14 by immunohistochemistry", "type": "functional, organism-based"}, "Mus musculus [25]": {"tested_on": "Mus musculus", "test": "In-vivo stabilization SMN2 mRNA in SMA delta7 ip dosed mouse assessed as increase in number of motor neurons dosed daily starting from postnatal day 3 to postnatal day 14 by immunohistochemistry", "type": "functional, organism-based"}, "Mus musculus [26]": {"tested_on": "Mus musculus", "test": "In-vivo stabilization SMN2 mRNA in SMA delta7 ip dosed mouse assessed as increase in percentage of fully innervated NMJs dosed daily starting from postnatal day 3 to postnatal day 14 by immunohistochemistry", "type": "functional, organism-based"}, "Mus musculus [27]": {"tested_on": "Mus musculus", "test": "In-vivo stabilization SMN2 mRNA in SMA delta7 ip dosed mouse assessed as increase in muscle size dosed daily starting from postnatal day 3 to postnatal day 14 by immunohistochemistry", "type": "functional, organism-based"}, "Mus musculus [28]": {"tested_on": "Mus musculus", "test": "In-vivo stabilization SMN2 mRNA in SMA delta7 ip dosed mouse assessed as increased muscle size in the EDL dosed daily starting from postnatal day 3 to postnatal day 14 by immunohistochemistry", "type": "functional, organism-based"}, "[29]": {"test": "Toxicity in po dosed rat assessed phospholipidosis administered via gavage up to 26 weeks", "type": "organism-based", "conditions": "in vivo, 4368 h"}, "Mus musculus [30]": {"tested_on": "Mus musculus", "test": "In-vivo stabilization of SMN2 mRNA in SMA neonatal delta7 mouse model assessed as increase in SMN protein levels in brain at 10 mg/kg, ip dosed once daily starting from postnatal day 3 to postnatal day 9 relative to control", "type": "functional"}, "[31]": {"target": "Survival motor neuron protein (Homo sapiens) (UniProt Q16637)", "sequence (Q16637 whole entry)": "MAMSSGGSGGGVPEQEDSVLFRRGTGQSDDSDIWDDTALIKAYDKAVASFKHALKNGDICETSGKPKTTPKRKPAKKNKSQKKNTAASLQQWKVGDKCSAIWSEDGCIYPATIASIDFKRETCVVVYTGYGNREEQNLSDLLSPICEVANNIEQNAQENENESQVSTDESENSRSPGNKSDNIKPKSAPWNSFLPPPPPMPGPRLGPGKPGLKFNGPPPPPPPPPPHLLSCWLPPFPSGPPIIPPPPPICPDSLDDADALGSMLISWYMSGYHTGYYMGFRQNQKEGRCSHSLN", "test": "Activation of SMN protein in human SMA-derived fibroblasts after 48 hrs by HTRF assay"}, "[32]": {"test": "Stabilization of human MADD mRNA splicing expressed in human SMA-derived fibroblasts at 121 to 605 nM by RT-qPCR analysis", "type": "ADME", "conditions": "0.605 µM"}, "[33]": {"test": "Stabilization of human APLP2 mRNA splicing expressed in human SMA-derived fibroblasts at 121 to 605 nM by RT-qPCR analysis", "type": "ADME", "conditions": "0.605 µM"}, "[34]": {"test": "Chronic toxicity in retina of po dosed cynomolgus monkey assessed as multifocal peripheral retina degeneration after 39 weeks by OCT analysis", "type": "organism-based, Macaca fascicularis", "conditions": "in vivo, 6552 h"}, "[35]": {"test": "Chronic toxicity in retina of po dosed cynomolgus monkey assessed as formation of scotopic depressed B-waves after 39 weeks by ERG analysis", "type": "organism-based, Macaca fascicularis", "conditions": "in vivo, 6552 h"}, "[36]": {"test": "Chronic toxicity in retina of po dosed cynomolgus monkey assessed as effect on outer nuclear layers after 39 weeks by histological analysis", "type": "organism-based, Macaca fascicularis", "conditions": "in vivo, 6552 h"}, "[37]": {"test": "Chronic toxicity in retina of po dosed cynomolgus monkey assessed as effect on photo-receptor layers after 39 weeks by histological analysis", "type": "organism-based, Macaca fascicularis", "conditions": "in vivo, 6552 h"}, "[38]": {"test": "Chronic toxicity in retina of po dosed cynomolgus monkey assessed as RPE hypertrophy 39 weeks by histological analysis", "type": "organism-based, Macaca fascicularis", "conditions": "in vivo, 6552 h"}},
  "note": "The source made the active and inactive calls. The calls are words filed in the database; no cut-off is given here.",
  "data": [
    {"compound": "Cc1cn2nc(-c3cc(=O)n4cc(N5CCNC6(CC6)C5)ccc4n3)cc(C)c2n1", "values": [
      {"measurement": "EC1.5", "setting": "Homo sapiens", "value": 4, "unit": "nM"},
      {"measurement": "EC50", "setting": "[1]", "value": 67, "unit": "nM"},
      {"measurement": "IC50", "setting": "[2]", "value": 113, "unit": "nM"},
      {"measurement": "IC50", "setting": "[3]", "value": 155, "unit": "nM"},
      {"measurement": "IC20", "setting": "hERG (KCNH2)", "value": "> 5000", "unit": "nM"},
      {"measurement": "Activity", "setting": "[4]", "value": "Non-Toxic"},
      {"measurement": "efflux ratio", "setting": "[5]", "value": 2.2},
      {"measurement": "fraction unbound", "setting": "[6]", "value": 0.11},
      {"measurement": "fraction unbound", "setting": "[7]", "value": 0.1},
      {"measurement": "clearance", "setting": "[8]", "value": 8.9, "unit": "mL/min/kg"},
      {"measurement": "Vd", "setting": "[9]", "value": 3.1, "unit": "L/kg"},
      {"measurement": "bioavailability", "setting": "[10]", "value": 100, "unit": "%"},
      {"measurement": "clearance", "setting": "[11]", "value": 5.7, "unit": "mL/min/kg"},
      {"measurement": "half-life", "setting": "[12]", "value": 5.4, "unit": "h"},
      {"measurement": "bioavailability", "setting": "[13]", "value": 43, "unit": "%"},
      {"measurement": "Activity", "setting": "Mus musculus [14]", "value": 17, "unit": "%"},
      {"measurement": "Activity", "setting": "Mus musculus [15]", "value": 0, "unit": "%"},
      {"measurement": "Activity", "setting": "Mus musculus [16]", "value": 0, "unit": "%"},
      {"measurement": "Activity", "setting": "Mus musculus [17]", "value": 28, "unit": "%"},
      {"measurement": "Activity", "setting": "Mus musculus [18]", "value": 90, "unit": "%"},
      {"measurement": "Activity", "setting": "Mus musculus [19]", "value": 206, "unit": "%"},
      {"measurement": "Activity", "setting": "Mus musculus [20]", "value": 64, "unit": "%"},
      {"measurement": "Activity", "setting": "Mus musculus [21]", "value": 210, "unit": "%"},
      {"measurement": "Activity", "setting": "Mus musculus [22]", "value": "Active"},
      {"measurement": "MSD", "setting": "Mus musculus [23]", "value": 26, "unit": "days"},
      {"measurement": "Activity", "setting": "Mus musculus [24]", "value": "Dose-dependent effect"},
      {"measurement": "Activity", "setting": "Mus musculus [25]", "value": "Dose-dependent effect"},
      {"measurement": "Activity", "setting": "Mus musculus [26]", "value": "Dose-dependent effect"},
      {"measurement": "Activity", "setting": "Mus musculus [27]", "value": "Dose-dependent effect"},
      {"measurement": "Activity", "setting": "Mus musculus [28]", "value": "Dose-dependent effect"},
      {"measurement": "Activity", "setting": "[29]", "value": "Non-Toxic"},
      {"measurement": "Activity", "setting": "Mus musculus [30]", "value": 202, "unit": "%"},
      {"measurement": "EC1.5", "setting": "[31]", "value": 29, "unit": "nM"},
      {"measurement": "Activity", "setting": "[32]", "value": "Non-Toxic"},
      {"measurement": "Activity", "setting": "[33]", "value": "Non-Toxic"},
      {"measurement": "Activity", "setting": "[34]", "value": "Toxic"},
      {"measurement": "Activity", "setting": "[35]", "value": "Toxic"},
      {"measurement": "Activity", "setting": "[36]", "value": "Toxic"},
      {"measurement": "Activity", "setting": "[37]", "value": "Toxic"},
      {"measurement": "Activity", "setting": "[38]", "value": "Toxic"},
      {"measurement": "pKa", "setting": "physchem", "value": 6.8}
    ]}
  ]
}
